In patent publication US8999982B2, “Pharmaceutically active compounds as Axl inhibitors” (Lead Discovery Center GmbH, priority 2010, dated 2015) one finds IC50 data, which are given here for 33 compounds.

By IC50 is commonly meant the concentration that inhibits the measured activity by half. A high value points to a need for much substance.

Test [1] deals with T1, Axl (Homo sapiens (Human), UniProt P30530). In words: Axl binding assay. On the procedure:
Binding of the tracer to the kinase is detected using an EU-labeled anti-tag antibody. […] Binding of an inhibitor to the kinase competes for binding with the tracer, resulting in a loss of FRET-signal. At first a compound according to formula (I) was diluted in 20 mM Hepes pH 8.0, 1 mM DTT, 10 mM MgCl2 and 0.01% Brij35.

The target in test [2] is T1, Axl. The experiment in a line: Cellular Axl phosphorylation assay. Format: cell-based. The settings on record: HEK293 cells transfected with Axl cDNA, 1 hour incubation. On the procedure:
3. Cellular Axl Phosphorylation Assay:
HEK293 embryonal kidney fibroblasts were transfected in 96 wells with a plasmid containing Axl cDNA. As transfection reagent Superfect (Qiagen) was used. Transfection of the sole vector backbone served as negative control of Axl expression. After overnight incubation the cellular supernatant was replaced with fresh medium. On the following day the Axl-expressing cells were incubated for 1 hour with a compound according to formula (I) at the suitable concentrations. […] The mesoscale technology was used for quantification.

T1 sequence (P30530 26-894): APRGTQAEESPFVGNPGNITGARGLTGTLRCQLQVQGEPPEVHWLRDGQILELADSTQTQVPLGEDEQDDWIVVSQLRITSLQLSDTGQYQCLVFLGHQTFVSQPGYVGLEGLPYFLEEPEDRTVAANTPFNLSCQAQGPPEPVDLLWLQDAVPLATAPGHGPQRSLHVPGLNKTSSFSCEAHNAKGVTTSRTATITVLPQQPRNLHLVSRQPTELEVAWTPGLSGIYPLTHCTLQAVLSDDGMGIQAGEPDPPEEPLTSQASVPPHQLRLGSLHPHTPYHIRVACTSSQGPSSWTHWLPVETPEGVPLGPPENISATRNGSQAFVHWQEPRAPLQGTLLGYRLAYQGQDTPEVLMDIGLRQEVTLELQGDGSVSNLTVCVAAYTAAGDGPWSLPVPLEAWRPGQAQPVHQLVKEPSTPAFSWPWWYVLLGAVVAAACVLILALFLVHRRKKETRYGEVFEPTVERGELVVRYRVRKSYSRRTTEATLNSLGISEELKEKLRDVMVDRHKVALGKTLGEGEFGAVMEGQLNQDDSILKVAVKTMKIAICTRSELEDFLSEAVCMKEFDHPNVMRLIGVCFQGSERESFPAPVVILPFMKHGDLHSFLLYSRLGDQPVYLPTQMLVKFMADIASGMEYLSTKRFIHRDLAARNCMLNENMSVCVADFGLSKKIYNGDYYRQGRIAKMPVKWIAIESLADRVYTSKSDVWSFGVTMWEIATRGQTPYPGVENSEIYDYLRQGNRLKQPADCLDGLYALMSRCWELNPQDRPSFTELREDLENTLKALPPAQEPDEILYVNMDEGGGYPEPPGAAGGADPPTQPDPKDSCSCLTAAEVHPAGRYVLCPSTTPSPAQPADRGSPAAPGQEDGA

On to `COc1cc2nccc(Oc3ccc(N)cc3Cl)c2cc1OC` [3-chloro-4-((6,7-dimethoxyquinolin-4-yl)oxy)aniline], for which, at Axl [1], the IC50 was above 10 µM. Take `COc1cc(Oc2ccnc3cc(OC)c(OC)cc23)ccc1N` [4-((6,7-dimethoxyquinolin-4-yl)oxy)-2-methoxyaniline]: the half-inhibitory concentration (IC50) at Axl [1] is above 10 µM. `COc1cc2nccc(Oc3ccc(N)c(C)c3)c2cc1OC` [4-((6,7-dimethoxyquinolin-4-yl)oxy)-2-methylaniline] returned a half-maximal inhibitory concentration (IC50) on Axl [1] above 10 µM. The same measure, in the same setting: with `COc1cc2nccc(Oc3ccc(N)cc3F)c2cc1OC` [4-((6,7-dimethoxyquinolin-4-yl)oxy)-3-fluoroaniline] the figure was above 10 µM; with `COc1cc2nccc(Oc3ccc(N)cc3C)c2cc1OC` [4-((6,7-dimethoxyquinolin-4-yl)oxy)-3-methylaniline], above 10 µM; with `COc1cc2nccc(Oc3ccc(N)cc3)c2cc1OC` [4-((6,7-dimethoxyquinolin-4-yl)oxy)aniline], above 10 µM.

Turning to `COc1cc2nccc(Oc3ccc(N)nc3)c2cc1OC` [5-((6,7-dimethoxyquinolin-4-yl)oxy)pyridin-2-amine], the half-inhibitory concentration (IC50) on Axl [1] was above 10 µM.

Consider `COc1cc2nccc(Oc3ccc(NC(=O)c4cc(C)n(C)n4)cc3F)c2cc1OC` [Example 1, N-[4-[(6,7-dimethoxy-4-quinolyl)oxy]-3-fluoro-phenyl]-1,5-dimethyl-pyrazole-3-carboxamide], for which the IC50 against Axl [2] lay within 500 to 5000 nM; at Axl [1], 0.5 to 5 µM.

For the compound `COc1cc2nccc(Oc3ccc(NC(=O)c4csc(-c5ccc(C(F)(F)F)cc5)n4)cc3F)c2cc1OC` [Example 2, N-[4-[(6,7-dimethoxy-4-quinolyl)oxy]-3-fluoro-phenyl]-2-[4-(trifluoromethyl)phenyl]thiazole-4-carboxamide], the concentration for half-maximal inhibition (IC50) at Axl [1] was in the range of 0.5 to 5 µM.

For `COc1cc2nccc(Oc3ccc(NC(=O)c4nn(C)cc4Br)cc3F)c2cc1OC` [Example 3, 4-bromo-N-[4-[(6,7-dimethoxy-4-quinolyl)oxy]-3-fluoro-phenyl]-1-methyl-pyrazole-3-carboxamide], the IC50 against Axl [2] fell in the range of 500 to 5000 nM; on Axl [1], 0.5 to 5 µM. In the same order, the values of `COc1cc2nccc(Oc3ccc(NC(=O)c4ccn(C)n4)cc3F)c2cc1OC` [Example 4, N-[4-[(6,7-dimethoxy-4-quinolyl)oxy]-3-fluoro-phenyl]-1-methyl-pyrazole-3-carboxamide] are 500 to 5000 nM and 0.5 to 5 µM.

For the compound `COc1cc2nccc(Oc3ccc(NC(=O)c4cc(C)n(C(C)(C)C)n4)cc3F)c2cc1OC` [Example 5, 1-tert-butyl-N-[4-[(6,7-dimethoxy-4-quinolyl)oxy]-3-fluoro-phenyl]-5-methyl-pyrazole-3-carboxamide], the half-inhibitory concentration (IC50) is below 500 nM at Axl [2] and below 0.5 µM on Axl [1]. The compound `COc1cc2nccc(Oc3ccc(NC(=O)c4nccs4)cc3F)c2cc1OC` [Example 6, N-[4-[(6,7-dimethoxy-4-quinolyl)oxy]-3-fluoro-phenyl]thiazole-2-carboxamide] yielded an IC50 on Axl [1] of 0.5 to 5 µM. Same read-out and setting: then `COc1cc2nccc(Oc3ccc(NC(=O)c4nn(C)c5ccccc45)cc3F)c2cc1OC` [Example 8, N-[4-[(6,7-dimethoxy-4-quinolyl)oxy]-3-fluoro-phenyl]-1-methyl-indazole-3-carboxamide], with 0.5 to 5 µM; and `COc1cc2nccc(Oc3ccc(NC(=O)c4cc(C)on4)cc3F)c2cc1OC` [Example 9, N-[4-[(6,7-dimethoxy-4-quinolyl)oxy]-3-fluoro-phenyl]-5-methyl-isoxazole-3-carboxamide], with 0.5 to 5 µM. Take `COc1cc2nccc(Oc3ccc(NC(=O)c4csc(-c5ccccc5)n4)cc3F)c2cc1OC` [Example 10, N-[4-[(6,7-dimethoxy-4-quinolyl)oxy]-3-fluoro-phenyl]-2-phenyl-thiazole-4-carboxamide]: the IC50 is 500 to 5000 nM on Axl [2] and 0.5 to 5 µM on Axl [1]. In the same order, the values of `CCCn1ccc(C(=O)Nc2ccc(Oc3ccnc4cc(OC)c(OC)cc34)c(F)c2)n1` [Example 13, N-[4-[(6,7-dimethoxy-4-quinolyl)oxy]-3-fluoro-phenyl]-1-propyl-pyrazole-3-carboxamide] are below 500 nM and 0.5 to 5 µM. Turning to `COc1cc2nccc(Oc3ccc(NC(=O)c4ccn(COCC(F)(F)F)n4)cc3F)c2cc1OC` [Example 15, N-[4-[(6,7-dimethoxy-4-quinolyl)oxy]-3-fluoro-phenyl]-1-(2,2,2-trifluoroethoxymethyl)pyrazole-3-carboxamide], the 50% inhibitory concentration (IC50) at Axl [2] was below 500 nM; at Axl [1], 0.5 to 5 µM.

On to `CCOc1cn(-c2ccc(F)cc2)nc1C(=O)Nc1ccc(Oc2ccnc3cc(OC)c(OC)cc23)c(F)c1` [Example 16, N-[4-[(6,7-dimethoxy-4-quinolyl)oxy]-3-fluoro-phenyl]-4-ethoxy-1-(4-fluorophenyl)pyrazole-3-carboxamide], for which the values for the half-inhibitory concentration (IC50) on Axl [2] and at Axl [1] were below 500 nM and below 0.5 µM, respectively. Regarding `COc1cc2nccc(Oc3ccc(NC(=O)c4nn(-c5ccc(F)cc5)cc4OC)cc3F)c2cc1OC` [Example 17, N-[4-[(6,7-dimethoxy-4-quinolyl)oxy]-3-fluoro-phenyl]-1-(4-fluorophenyl)-4-methoxy-pyrazole-3-carboxamide], the half-maximal inhibitory concentration (IC50) against Axl [2] was below 500 nM; at Axl [1], below 0.5 µM. In the same order, the values of `COc1cc2nccc(Oc3ccc(NC(=O)c4nn(-c5ccc(F)cc5)cc4OCC4CC4)cc3F)c2cc1OC` [Example 18, 4-(cyclopropylmethoxy)-N-[4-[(6,7-dimethoxy-4-quinolyl)oxy]-3-fluoro-phenyl]-1-(4-fluorophenyl)pyrazole-3-carboxamide] are below 500 nM and below 0.5 µM. Take `COc1cc2nccc(Oc3ccc(NC(=O)c4nn(-c5ccc(F)cc5)cc4OCCN(C)C)cc3F)c2cc1OC` [Example 19, N-[4-[(6,7-dimethoxy-4-quinolyl)oxy]-3-fluoro-phenyl]-4-(2-dimethylaminoethoxy)-1-(4-fluorophenyl)pyrazole-3-carboxamide]: the IC50 at Axl [2] is below 500 nM; at Axl [1], below 0.5 µM. In the same order, the values of `COc1cc2nccc(Oc3ccc(NC(=O)c4nn(-c5ccc(F)cc5)cc4OCCCN(C)C)cc3F)c2cc1OC` [Example 20, N-[4-[(6,7-dimethoxy-4-quinolyl)oxy]-3-fluoro-phenyl]-4-(3-dimethylaminopropoxy)-1-(4-fluorophenyl)pyrazole-3-carboxamide] are 500 to 5000 nM and 0.5 to 5 µM. For `COc1cc2nccc(Oc3ccc(NC(=O)c4nn(-c5ccc(F)cc5)cc4OC(C)C)cc3F)c2cc1OC` [Example 21, N-[4-[(6,7-dimethoxy-4-quinolyl)oxy]-3-fluoro-phenyl]-1-(4-fluorophenyl)-4-isopropoxy-pyrazole-3-carboxamide], in that order: below 500 nM and below 0.5 µM. With `CCOc1cn(-c2ccc(F)cc2Cl)nc1C(=O)Nc1ccc(Oc2ccnc3cc(OC)c(OC)cc23)c(F)c1` [Example 23, 1-(2-chloro-4-fluoro-phenyl)-N-[4-[(6,7-dimethoxy-4-quinolyl)oxy]-3-fluoro-phenyl]-4-ethoxy-pyrazole-3-carboxamide], the 50% inhibitory concentration (IC50) is below 500 nM at Axl [2] and below 0.5 µM on Axl [1]. On to `CCOc1cn(-c2ccc(F)cc2)nc1C(=O)Nc1ccc(Oc2ccnc3cc(OC)c(OC)cc23)cc1` [Example 24, N-[4-[(6,7-dimethoxy-4-quinolyl)oxy]phenyl]-4-ethoxy-1-(4-fluorophenyl)pyrazole-3-carboxamide], for which the IC50 on Axl [2] is below 500 nM; on Axl [1] it was below 0.5 µM. On to `COc1cc2c(Oc3ccc(NC(=O)c4nc(-c5ccccc5OC)cs4)nc3)ccnc2cc1OCC1CCNCC1` [Example 100, N-(5-((6-methoxy-7-(piperidin-4-ylmethoxy)quinolin-4-yl)oxy)pyridin-2-yl)-4-(2-methoxyphenyl)thiazole-2-carboxamide], for which, at Axl [1], the IC50 lay in the range of 0.5 to 5 µM. Same read-out and setting: then `CCOc1cn(-c2ccn(C)n2)nc1C(=O)Nc1ccc(Oc2ccnc3cc(OC)c(OC)cc23)c(F)c1` [Example 106, N-(4-((6,7-dimethoxyquinolin-4-yl)oxy)-3-fluorophenyl)-4-ethoxy-1′-methyl-1′H-[1,3′-bipyrazole]-3-carboxamide], with below 0.5 µM; and `COc1cc2nccc(Oc3ccc(NC(=O)c4cnn(-c5ccccc5)c4C(F)(F)F)cc3F)c2cc1OC` [Ref1, N-(4-((6,7-dimethoxyquinolin-4-yl)oxy)-3-fluorophenyl)-1-phenyl-5-(trifluoromethyl)-1H-pyrazole-4-carboxamide, reference compound], with above 10 µM; and `COc1cc2nccc(Oc3ccc(NC(=O)c4cc(-c5ccccc5)on4)cc3F)c2cc1OC` [Ref2, N-(4-((6,7-dimethoxyquinolin-4-yl)oxy)-3-fluorophenyl)-5-phenylisoxazole-3-carboxamide, reference compound], with above 10 µM. Turning to `COc1cc2nccc(Oc3ccc(NC(=O)c4ccco4)cc3)c2cc1OC` [Ref3, N-(4-((6,7-dimethoxyquinolin-4-yl)oxy)phenyl)furan-2-carboxamide, reference compound], the concentration for half-maximal inhibition (IC50) was above 10 µM on Axl [1] and at least 10 µM on Axl [1] (listed as compound 64). For `COc1cc2nccc(Oc3ccc(NC(=O)c4ccncc4)cc3)c2cc1OC` [Ref5, N-(4-((6,7-dimethoxyquinolin-4-yl)oxy)phenyl)isonicotinamide, reference compound], the concentration for half-maximal inhibition (IC50) on Axl [1] is above 10 µM; on Axl [1] (listed as compound 71) it was at least 10 µM. On Axl [1], `COc1cc2c(Oc3ccc(N)cc3F)ccnc2cc1OCC1CCN(C(=O)OC(C)(C)C)CC1` [tert-butyl 4-(((4-(4-amino-2-fluorophenoxy)-6-methoxyquinolin-7-yl)oxy)methyl)piperidine-1-carboxylate] returned an IC50 above 10 µM.
